From paper PMC9824425, “Ammonium Uptake, Mediated by Ammonium Transporters, Mitigates Manganese Toxicity in Duckweed, Spirodela polyrhiza” (Plants, 2023)

Legend:
SpAMT1;3 = details: NH4Cl 10-10,000 µM; pH 5.5 (MES/Tris); choline chloride 110 mM; membrane potential for the fit not told
SpAMT1;1 = details: NH4Cl 10-10,000 µM; pH 5.5 (MES/Tris); choline chloride 110 mM; membrane potential for the fit not told

Km (SpAMT1;3): 5400 µM | Km (SpAMT1;1): 116 µM
Structure (SMILES): N [ammonium]
